Among the test systems are NCI-H226 lung; LOX IMVI melanoma; OVCAR-4 ovarian; HCT-15 colon; UACC-257 melanoma; MOLT-4 leukemia; KM12 colon; M14 melanoma; A498 renal; SNB-75 CNS.
Common to all, as to assay: DTP human tumour cell line panel, 48 h

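Compound exposure: 48 hours, 5 concentrations, 96-well plates. Here, GI50 denotes the concentration required for 50% inhibition of growth. TGI: total growth inhibition.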 Where only a bound is given, the exact number is not on record here.

As a reminder, the GI50 is the concentration at which growth is held to half of that of the control. In general, TGI refers to the concentration giving total growth inhibition. A low value points to more potent growth arrest.

Consider `O=C1/C=C/[C@@H](O)[C@@H]2C[C@@H](O)C[C@H]2/C=C/CCC[C@H](CO)O1`, for which the GI50 was 1.21 µM in the assay on NCI-H226 lung; 0.832 µM in the assay on LOX IMVI melanoma; 2.07 µM in the assay on OVCAR-4 ovarian; 3.62 µM with HCT-15 colon; 1.68 µM with UACC-257 melanoma; 3.11 µM in the assay with MOLT-4 leukemia. Further, the GI50 with KM12 colon is 2.42 µM; in the assay with M14 melanoma, 2.42 µM; in the assay on A498 renal it was 1.31 µM; with SNB-75 CNS, 2.37 µM. For the same compound, the TGI with NCI-H226 lung was 2.74 µM; in the assay on LOX IMVI melanoma, 3.81 µM; in the assay with OVCAR-4 ovarian, greater than 100 µM; with HCT-15 colon, greater than 100 µM; in the assay on UACC-257 melanoma, greater than 100 µM; in the assay with MOLT-4 leukemia it was greater than 100 µM. Besides, the TGI with KM12 colon, in the assay with M14 melanoma, in the assay on A498 renal and in the assay with SNB-75 CNS was greater than 100 µM in each case.

For `O=c1ccccc(-c2ccc(-c3ccco3)cc2)c1O`, the GI50 with NCI-H226 lung is 2.31 µM; in the assay with LOX IMVI melanoma, 0.472 µM; in the assay on OVCAR-4 ovarian, 0.363 µM; in the assay on HCT-15 colon, 0.373 µM; with UACC-257 melanoma it was 1.6 µM; with MOLT-4 leukemia, 0.501 µM. Moreover, the GI50 was 0.743 µM in the assay with KM12 colon, 0.665 µM with M14 melanoma, 3.46 µM with A498 renal and 0.994 µM in the assay on SNB-75 CNS. In addition, the TGI came to 23 µM with NCI-H226 lung; 11.2 µM in the assay with LOX IMVI melanoma; 60.2 µM in the assay on OVCAR-4 ovarian; 41.2 µM in the assay with HCT-15 colon; 18.8 µM in the assay on UACC-257 melanoma; 51.5 µM in the assay with MOLT-4 leukemia. Also, the TGI was 17.5 µM in the assay on KM12 colon, 6.11 µM with M14 melanoma, 25.9 µM in the assay on A498 renal and greater than 100 µM in the assay with SNB-75 CNS.

As to `CC(C)Cc1ccc(C(C)/C=C2\CCC(CN3CCCC3)C2=O)cc1` (centres undefined), the TGI was found to be 33.1 µM in the assay on NCI-H226 lung; 8.49 µM in the assay on LOX IMVI melanoma; 27.1 µM in the assay with OVCAR-4 ovarian; 13.3 µM with HCT-15 colon; 31.1 µM in the assay on UACC-257 melanoma; 9.64 µM in the assay with MOLT-4 leukemia. For the same compound, the TGI with KM12 colon is 7.74 µM; in the assay with M14 melanoma it was 29.6 µM; with A498 renal, 36.5 µM; in the assay with SNB-75 CNS, 30 µM.

On to `Cc1ccc(NC(=O)CC/C(CC(=O)c2ccc(Cl)cc2)=N\NC(=O)C(=O)NN)cc1C`, for which the TGI in the assay on NCI-H226 lung, in the assay with LOX IMVI melanoma, with OVCAR-4 ovarian, with HCT-15 colon, in the assay on UACC-257 melanoma and in the assay on MOLT-4 leukemia was greater than 100 µM throughout. Further, the TGI in the assay with KM12 colon, with M14 melanoma, in the assay on A498 renal and with SNB-75 CNS was greater than 100 µM each time.

`N#C/C(=C/C=C/c1ccccc1)S(=O)c1ccccc1` (centres undefined): the GI50 with NCI-H226 lung was 1.92 µM; in the assay with LOX IMVI melanoma, 0.163 µM; in the assay with OVCAR-4 ovarian, 0.329 µM; in the assay with HCT-15 colon, 0.211 µM; in the assay with UACC-257 melanoma, 0.845 µM; with MOLT-4 leukemia, 0.338 µM. Besides, the GI50 with KM12 colon was 0.594 µM; with M14 melanoma, 0.655 µM; in the assay with A498 renal, 1.61 µM; in the assay on SNB-75 CNS, 0.904 µM. Also, the TGI in the assay with NCI-H226 lung was 5.88 µM; with LOX IMVI melanoma it was 0.337 µM; in the assay on OVCAR-4 ovarian it was 2.27 µM; with HCT-15 colon, 0.638 µM; with UACC-257 melanoma, 2.41 µM; in the assay on MOLT-4 leukemia it was 3.64 µM. Further, the TGI in the assay on KM12 colon amounted to 2.17 µM; with M14 melanoma, 2.7 µM; with A498 renal it was 3.13 µM; with SNB-75 CNS, 3.01 µM.

Turning to `CC1OC(O[C@H]2/C=C/C=C/C=C/C=C/C=C/C=C/C=C/[C@H](C)[C@@H](O)[C@@H](C)[C@H](C)OC(=O)C[C@H](O)C[C@H](O)CC[C@@H](O)[C@H](O)C[C@H](O)C[C@]3(O)C[C@H](O)[C@@H](C(=O)O)[C@H](C2)O3)C(O)C(N)C1O` (some centres undefined), the TGI in the assay with NCI-H226 lung is greater than 100 µM; with LOX IMVI melanoma, greater than 50.7 µM; with OVCAR-4 ovarian it was 51.2 µM; with HCT-15 colon it was 60.9 µM; with UACC-257 melanoma, 40.4 µM; with MOLT-4 leukemia, 75.4 µM. Moreover, the TGI in the assay on KM12 colon came out at 42.6 µM; in the assay on M14 melanoma it was 29.2 µM; in the assay with A498 renal it was 25 µM; in the assay on SNB-75 CNS it was 61.7 µM. In addition, the GI50 was 15.2 µM in the assay on LOX IMVI melanoma; 44.7 µM with HCT-15 colon; 12.2 µM in the assay on UACC-257 melanoma; 29.2 µM in the assay with MOLT-4 leukemia; 11 µM in the assay with M14 melanoma; 10.4 µM in the assay with A498 renal. Moreover, the GI50 in the assay with SNB-75 CNS was 32.7 µM.

In the case of `CC(C)c1cccc(C(C)C)c1N=C(N)C#N`, the TGI with NCI-H226 lung is greater than 100 µM; with LOX IMVI melanoma it was greater than 56.2 µM; in the assay with OVCAR-4 ovarian it was greater than 100 µM; in the assay on HCT-15 colon, greater than 58.2 µM; with UACC-257 melanoma, greater than 79.6 µM; in the assay with MOLT-4 leukemia, greater than 66 µM. Further, the TGI in the assay on KM12 colon, with M14 melanoma, in the assay on A498 renal and with SNB-75 CNS was greater than 100 µM each time.

For `CC1=C(/C=C/C2=CC(=C\C(=O)O)/CC(C3=C(C)CCCC3(C)C)C2)C(C)(C)CCC1` (centres undefined), the TGI with NCI-H226 lung was 23.9 µM; with LOX IMVI melanoma, 27.6 µM; in the assay on OVCAR-4 ovarian, 28.1 µM; in the assay on UACC-257 melanoma, 29.5 µM; with MOLT-4 leukemia, 21.7 µM; in the assay with KM12 colon, 24.1 µM. Also, the figures for the TGI with M14 melanoma, with A498 renal and in the assay with SNB-75 CNS were 28.5 µM, 28.7 µM and 28.8 µM, respectively.

`CC(=O)NC1C(OCc2ccccc2)OC(COC(=O)CCCCCNc2ccc([N+](=O)[O-])c3[nH]c4ccc(O)cc4c(=O)c23)C(O)C1OC(C)C(=O)N[C@@H](C)C(=O)N[C@H](CCC(=O)OCc1ccccc1)C(N)=O` (some centres undefined): the TGI in the assay with NCI-H226 lung turned out to be 12.3 µM; in the assay with LOX IMVI melanoma, 10.7 µM; in the assay on OVCAR-4 ovarian it was 15.9 µM; in the assay on HCT-15 colon, 3.67 µM; with UACC-257 melanoma it was 6.38 µM; in the assay on MOLT-4 leukemia it was 5.56 µM. In addition, the TGI was 3.15 µM in the assay on M14 melanoma, 7.29 µM with A498 renal and 13.2 µM in the assay on SNB-75 CNS.

For the compound `CC(=O)O[C@H]1C(=O)[C@@]2(C)[C@H]([C@H](OC(=O)c3ccccc3)[C@]3(O)C[C@H](OC(=O)[C@H](O)[C@@H](NC(=O)CC(C)C)c4ccccc4)C(C)=C1C3(C)C)[C@]1(OC(C)=O)CO[C@@H]1C[C@@H]2O`, the TGI in the assay on NCI-H226 lung, in the assay on LOX IMVI melanoma, in the assay with OVCAR-4 ovarian, in the assay on HCT-15 colon, in the assay on UACC-257 melanoma and in the assay with MOLT-4 leukemia was greater than 10 µM throughout. Moreover, the TGI in the assay on M14 melanoma was greater than 10 µM; with A498 renal, greater than 10 µM; in the assay with SNB-75 CNS, 0.0253 µM.
